Read-outs that look alike come from different tables or passages of the source.
What was measured:
Human αvβ3 = molecular target: T1, Human αvβ3 (Homo sapiens, UniProt P05106+P06756); experiment: In vitro solid phase purified αvβ3 binding assay (vitronectin/αvβ3)
T1 construct: purchased Chemicon International Inc., Temecula, Calif
Summary of the method: (§1)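 αvβ3 (1 μg/ml) immobilised in Tris buffer with Ca2+/Mg2+/Mn2+, compounds added 5 min before 5 nM vitronectin, 3 h at 37 °C; bound vitronectin detected by anti-vitronectin antibody/peroxidase ELISA at 490 nm. GPIIb/IIIa coated overnight at 4 °C, biotinylated fibrinogen with compounds 2–4 h RT in modified Tyrodes buffer, avidin-HRP/o-phenylenediamine read at 490 nm.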

GPIIb/IIIa = GPIIb/IIIa (Homo sapiens, UniProt P05106+P08514); experiment: In vitro solid phase purified glycoprotein IIb/IIIa binding assay (biotinylated fibrinogen)
Summary of the method: as §1

[1] = isolated human αvβ3, 5 nM vitronectin, read-out: αvβ3 Binding IC50
[2] = RGD-affinity purified GPIIb/IIIa, biotinylated fibrinogen, read-out: GPIIb/IIIa Binding IC50

GPIIb/IIIa, sequence (P08514 32-887 limits assumed): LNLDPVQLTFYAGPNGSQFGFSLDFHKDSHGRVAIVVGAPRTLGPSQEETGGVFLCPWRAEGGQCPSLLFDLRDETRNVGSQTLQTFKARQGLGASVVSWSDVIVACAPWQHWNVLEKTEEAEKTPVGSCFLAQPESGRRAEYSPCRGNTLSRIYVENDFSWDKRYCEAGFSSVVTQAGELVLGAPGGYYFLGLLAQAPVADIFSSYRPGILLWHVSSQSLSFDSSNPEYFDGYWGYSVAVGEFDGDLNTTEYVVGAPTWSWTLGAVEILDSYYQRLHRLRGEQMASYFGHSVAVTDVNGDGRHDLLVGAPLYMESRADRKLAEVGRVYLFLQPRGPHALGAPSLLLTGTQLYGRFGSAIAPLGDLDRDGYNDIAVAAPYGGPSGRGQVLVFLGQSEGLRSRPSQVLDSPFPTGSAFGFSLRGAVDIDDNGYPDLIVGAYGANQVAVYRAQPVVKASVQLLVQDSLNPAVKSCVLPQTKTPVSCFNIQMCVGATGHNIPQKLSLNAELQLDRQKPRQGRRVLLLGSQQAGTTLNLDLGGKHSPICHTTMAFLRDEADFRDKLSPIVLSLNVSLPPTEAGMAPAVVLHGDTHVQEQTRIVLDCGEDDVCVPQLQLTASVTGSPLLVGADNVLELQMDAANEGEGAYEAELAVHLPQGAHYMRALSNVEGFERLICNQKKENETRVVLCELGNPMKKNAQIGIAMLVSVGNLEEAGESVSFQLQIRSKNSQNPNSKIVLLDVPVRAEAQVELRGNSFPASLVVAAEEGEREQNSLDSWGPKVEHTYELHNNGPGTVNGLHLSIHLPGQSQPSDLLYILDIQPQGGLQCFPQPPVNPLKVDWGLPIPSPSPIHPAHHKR
GPIIb/IIIa, sequence (P08514 891-1039 partner limits assumed): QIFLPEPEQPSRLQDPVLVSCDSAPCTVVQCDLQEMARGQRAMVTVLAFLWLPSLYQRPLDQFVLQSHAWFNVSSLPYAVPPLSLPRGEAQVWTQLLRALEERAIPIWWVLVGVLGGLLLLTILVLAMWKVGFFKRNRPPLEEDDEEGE
GPIIb/IIIa, sequence (P05106 27-788): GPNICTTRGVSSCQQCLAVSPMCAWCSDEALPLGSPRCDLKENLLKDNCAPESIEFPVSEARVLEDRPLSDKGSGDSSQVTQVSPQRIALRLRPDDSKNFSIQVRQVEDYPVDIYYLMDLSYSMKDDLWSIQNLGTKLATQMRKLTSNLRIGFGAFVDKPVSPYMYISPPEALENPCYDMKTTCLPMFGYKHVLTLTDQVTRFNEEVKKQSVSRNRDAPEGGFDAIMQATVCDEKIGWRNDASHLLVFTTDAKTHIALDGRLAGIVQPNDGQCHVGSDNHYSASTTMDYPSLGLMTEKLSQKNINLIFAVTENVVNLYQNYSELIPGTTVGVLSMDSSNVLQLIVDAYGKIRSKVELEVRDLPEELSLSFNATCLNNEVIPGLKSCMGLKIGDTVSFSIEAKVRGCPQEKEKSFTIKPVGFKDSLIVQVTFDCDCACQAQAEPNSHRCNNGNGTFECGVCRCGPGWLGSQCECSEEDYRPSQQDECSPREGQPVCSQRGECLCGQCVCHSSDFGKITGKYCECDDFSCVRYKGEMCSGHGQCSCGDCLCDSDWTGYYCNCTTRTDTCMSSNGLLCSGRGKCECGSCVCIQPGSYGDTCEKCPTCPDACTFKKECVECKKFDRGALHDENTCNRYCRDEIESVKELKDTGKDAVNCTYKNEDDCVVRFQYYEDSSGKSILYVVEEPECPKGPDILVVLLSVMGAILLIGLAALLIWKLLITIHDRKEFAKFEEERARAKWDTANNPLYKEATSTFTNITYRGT
T1 sequence (P06756 31-889 limits assumed): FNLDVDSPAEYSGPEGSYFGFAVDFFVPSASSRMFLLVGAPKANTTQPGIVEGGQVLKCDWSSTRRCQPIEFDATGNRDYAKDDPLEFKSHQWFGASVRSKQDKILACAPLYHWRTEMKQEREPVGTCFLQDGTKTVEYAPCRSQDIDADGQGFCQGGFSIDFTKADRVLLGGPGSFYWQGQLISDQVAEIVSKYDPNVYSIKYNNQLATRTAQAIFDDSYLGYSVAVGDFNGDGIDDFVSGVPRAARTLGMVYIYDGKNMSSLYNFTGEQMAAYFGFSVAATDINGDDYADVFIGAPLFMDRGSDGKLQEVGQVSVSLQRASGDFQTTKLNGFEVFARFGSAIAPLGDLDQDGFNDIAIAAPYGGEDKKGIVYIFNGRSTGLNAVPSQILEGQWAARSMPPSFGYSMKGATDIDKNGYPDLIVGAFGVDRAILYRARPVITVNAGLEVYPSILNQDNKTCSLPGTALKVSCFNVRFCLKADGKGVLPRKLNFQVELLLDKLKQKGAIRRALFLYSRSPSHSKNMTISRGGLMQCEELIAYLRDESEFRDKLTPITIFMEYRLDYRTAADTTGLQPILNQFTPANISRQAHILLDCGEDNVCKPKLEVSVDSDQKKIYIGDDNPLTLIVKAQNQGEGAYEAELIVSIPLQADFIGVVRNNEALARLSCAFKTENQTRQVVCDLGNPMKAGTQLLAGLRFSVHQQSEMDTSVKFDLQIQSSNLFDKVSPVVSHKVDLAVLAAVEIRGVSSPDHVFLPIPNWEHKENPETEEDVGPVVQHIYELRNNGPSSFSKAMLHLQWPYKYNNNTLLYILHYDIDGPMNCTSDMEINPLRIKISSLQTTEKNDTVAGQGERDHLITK
T1 sequence (P06756 891-1048 partner limits assumed): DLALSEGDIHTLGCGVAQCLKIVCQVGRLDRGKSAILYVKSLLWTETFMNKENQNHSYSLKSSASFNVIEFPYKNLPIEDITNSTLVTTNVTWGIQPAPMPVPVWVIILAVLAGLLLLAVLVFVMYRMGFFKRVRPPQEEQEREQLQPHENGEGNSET
T1 sequence (P05106 27-788): as the sequence (P05106 27-788) above

IC50 (Human αvβ3; [1]) [nM] | IC50 (GPIIb/IIIa; [2]) [nM] | SMILES | IC50 (Human αvβ3) [nM] | IC50 (GPIIb/IIIa) [nM]
43 | 3700 | COc1ccc(S(=O)(=O)N[C@@H](Cc2nc3ccc(/C=C/CNC(=O)NCc4ccccc4)cc3c(=O)[nH]2)C(=O)O)cc1 [Compound 57, (αS)-3,4-dihydro-α-[[(4-methoxyphenyl)sulfonyl]amino]-4-oxo-6-[(1E)-3-[[[(phenylmethyl)amino]carbonyl]amino]-1-propenyl]-2-quinazolinepropanoic acid] |  | 
44 | 2500 | Cc1c(C)c(C)c(S(=O)(=O)N[C@@H](Cc2nc3ccc(/C=C/CNC(=O)NC(C)C)cc3c(=O)[nH]2)C(=O)O)c(C)c1C [Compound 58, (αS)-3,4-dihydro-6-[(1E)-3-[[[(1-methylethyl)amino]carbonyl]amino]-1-propenyl]-4-oxo-α-[[(2,3,4,5,6-pentamethylphenyl)sulfonyl]amino]-2-quinazolinepropanoic acid] |  | 
59 | 3900 | CNC(=O)NC/C=C/c1ccc2nc(C[C@H](NS(=O)(=O)c3c(C)c(C)c(C)c(C)c3C)C(=O)O)[nH]c(=O)c2c1 [Compound 59, (αS)-3,4-dihydro-6-[(1E)-3-[[(methylamino)carbonyl]amino]-1-propenyl]-4-oxo-α-[[(2,3,4,5,6-pentamethylphenyl)sulfonyl]amino]-2-quinazolinepropanoic acid] |  | 
58 | 620 | COc1ccc(S(=O)(=O)N[C@@H](Cc2nc3ccc(/C=C/CNC4=NCCCC4)cc3c(=O)[nH]2)C(=O)O)cc1OC [Compound 60, α-[[(3,4-dimethoxyphenyl)sulfonyl]amino]-(αS)-3,4-dihydro-4-oxo-6-[(1E)-3-[(3,4,5,6-tetrahydro-2-pyridinyl)amino]-1-propenyl]-2-quinazolinepropanoic acid] |  | 
69 | 12000 | Cc1c(C)c(C)c(S(=O)(=O)N[C@@H](Cc2nc3ccc(/C=C/CNc4nc5ccccc5c(=O)[nH]4)cc3c(=O)[nH]2)C(=O)O)c(C)c1C [Compound 61, 6-[(1E)-3-[(3,4-dihydro-4-oxo-2-quinazolinyl)amino]-1-propenyl]-(αS)-3,4-dihydro-4-oxo-α-[[(2,3,4,5,6-pentamethylphenyl)sulfonyl]amino]-2-quinazolinepropanoic acid] |  | 
79 | 4100 | Cc1cc(C)c(S(=O)(=O)N[C@@H](Cc2nc3ccc(/C=C/CNC(=O)NCc4ccccc4)cc3c(=O)[nH]2)C(=O)O)c(C)c1 [Compound 62, (αS)-3,4-dihydro-4-oxo-6-[(1E)-3-[[[(phenylmethyl)amino]carbonyl]amino]-1-propenyl]-α-[[(2,4,6-trimethylphenyl)sulfonyl]amino]-2-quinazolinepropanoic acid] |  | 
 |  | COc1ccc(OC(=O)N[C@@H](Cc2nc3ccc(/C=C/CNC4=NCCN4)cc3c(=O)[nH]2)C(=O)O)cc1 [Compound 63, 6-[(1E)-3-[(4,5-dihydro-1H-imidazol-2-yl)amino]-1-propenyl]-(αS)-3,4-dihydro-α-[[(4-methoxyphenoxy)carbonyl]amino]-4-oxo-2-quinazolinepropanoic acid] | 100 | 950
150 | 1100 | C=C(CNC(=O)NC(C)C)c1ccc2nc(C[C@H](NS(=O)(=O)c3c(C)c(C)c(C)c(C)c3C)C(=O)O)[nH]c(=O)c2c1 [Compound 64, (αS)-3,4-dihydro-6-[1-[[[[(1-methylethyl)amino]carbonyl]amino]methyl]ethenyl]-4-oxo-α-[[(2,3,4,5,6-pentamethylphenyl)sulfonyl]amino]-2-quinazolinepropanoic acid] |  | 
160 | 4100 | Cc1nn(C)c(Cl)c1S(=O)(=O)N[C@@H](Cc1nc2ccc(/C=C/CNC(=O)NCc3ccccc3)cc2c(=O)[nH]1)C(=O)O [Compound 65, α-[[(5-chloro-1,3-dimethyl-1H-pyrazol-4-yl)sulfonyl]amino]-(αS)-3,4-dihydro-4-oxo-6-[(1E)-3-[[[(phenylmethyl)amino]carbonyl]amino]-1-propenyl]-2-quinazolinepropanoic acid] |  | 
210 | 780 | Cc1c(C)c(C)c(S(=O)(=O)N[C@@H](Cc2nc3ccc(/C=C/CNC(=O)NC4C[C@H]4c4ccccc4)cc3c(=O)[nH]2)C(=O)O)c(C)c1C (stereo partly drawn) [Compound 66, (αS)-3,4-dihydro-4-oxo-α-[[(2,3,4,5,6-pentamethylphenyl)sulfonyl]amino]-6-[(1E)-3-[[[[(2S)-2-phenylcyclopropyl]amino]carbonyl]amino]-1-propenyl]-2-quinazolinepropanoic acid] |  | 
420 | 580 | O=C(N[C@@H](Cc1nc2ccc(/C=C/CNC3=NCCC3)cc2c(=O)[nH]1)C(=O)O)OCc1ccccc1 [Compound 67, 6-[(1E)-3-[(3,4-dihydro-2H-pyrrol-5-yl)amino]-1-propenyl]-(αS)-3,4-dihydro-4-oxo-α-[[(phenylmethoxy)carbonyl]amino]-2-quinazolinepropanoic acid] |  | 
440 | 230 | COc1ccc(S(=O)(=O)N[C@@H](Cc2nc3ccc(/C=C/CNC4=NCCCCCC4)cc3c(=O)[nH]2)C(=O)O)cc1OC [Compound 68, α-[[(3,4-dimethoxyphenyl)sulfonyl]amino]-6-[(1E)-3-[(3,4,5,6,7,8-hexahydro-2-azocinyl)amino]-1-propenyl]-(αS)-3,4-dihydro-4-oxo-2-quinazolinepropanoic acid] |  | 
490 | 18000 | Cc1ccnc(NC/C=C/c2ccc3nc(C[C@H](NC(=O)OCc4ccccc4)C(=O)O)[nH]c(=O)c3c2)c1 [Compound 69, (αS)-3,4-dihydro-6-[(1E)-3-[(4-methyl-2-pyridinyl)amino]-1-propenyl]-4-oxo-α-[[(phenylmethoxy)carbonyl]amino]-2-quinazolinepropanoic acid] |  | 
550 | 3200 | O=C(NC/C=C/c1ccc2nc(C[C@H](NS(=O)(=O)Cc3ccccc3)C(=O)O)[nH]c(=O)c2c1)NCc1ccccc1 [Compound 70, (αS)-3,4-dihydro-4-oxo-6-[(1E)-3-[[[(phenylmethyl)amino]carbonyl]amino]-1-propenyl]-α-[[(phenylmethyl)sulfonyl]amino]-2-quinazolinepropanoic acid] |  | 
960 | 12000 | CC(C)(C)OC(=O)N[C@@H](Cc1nc2ccc(/C=C/CNC3=NCCCCC3)cc2c(=O)[nH]1)C(=O)O [Compound 71, α-[[(1,1-dimethylethoxy)carbonyl]amino]-(αS)-3,4-dihydro-4-oxo-6-[(1E)-3-[(3,4,5,6-tetrahydro-2H-azepin-7-yl)amino]-1-propenyl]-2-quinazolinepropanoic acid] |  | 
1300 | 17000 | O=C(NC/C=C/c1ccc2nc(C[C@H](NS(=O)(=O)c3cccs3)C(=O)O)[nH]c(=O)c2c1)NCc1ccccc1 [Compound 72, (αS)-3,4-dihydro-4-oxo-6-[(1E)-3-[[[(phenylmethyl)amino]carbonyl]amino]-1-propenyl]-α-[(2-thienylsulfonyl)amino]-2-quinazolinepropanoic acid] |  | 
2000 | > 50000 | CCCCS(=O)(=O)N[C@@H](Cc1nc2ccc(/C=C/CNC(=O)NCc3ccccc3)cc2c(=O)[nH]1)C(=O)O [Compound 73, α-[(butylsulfonyl)amino]-(αS)-3,4-dihydro-4-oxo-6-[(1E)-3-[[[(phenylmethyl)amino]carbonyl]amino]-1-propenyl]-2-quinazolinepropanoic acid] |  | 

Reference: US7081460B2, “Quinazoline and quinazoline-like compounds for the treatment of integrin-mediated disorders” (Ortho-McNeil Pharmaceutical, Inc., priority 2001, dated 2006)
